The values that follow come from patent US8163804B2 (priority 2005, dated 2012).

Structures are written as SMILES. Where two headings read alike, the source gives them in different places.

Broadly, the mortality is the share of the test organisms that died.

Data set [1] has as its system Small Brown Planthopper (Laodelphax striatellus). The experiment in a line: Control test on small brown planthopper, nursery box application of paddy rice, number of parasitic insects after 40 and 60 days. The format is in vivo. How it is done: (§1) Control Test on Small Brown Planthopper (Laodelphax striatellus) and Rice Leafroller (Cnaphalocrocis medinalis) on Nursery Box Application of Paddy Rice
(§2) Rice (cultivar: Nihonbare) cultured in a nursery box was treated with 50 g of a granule formulation per box, and then transplanted to the rice field. For the control effect against Laodelphax striatellus, the number of parasitic insects was examined for 30 stumps per plot after 40 days and 60 days from the transplantation. In addition, for the control effect against Cnaphalocrocis medinalis, the number of infected leaves was examined for 100 stumps per plot after 50 days from the transplantation, and the infected leaf rate was calculated. In the Table, gai represents the amount of active ingredients (g).

Data set [2] has as its system Rice Leafroller (Cnaphalocrocis medinalis). In words: Control test on rice leafroller, nursery box application of paddy rice, infected leaf rate after 50 days. The format is in vivo. To be noted: 50 days after transplantation. As to the method: as §1, §2
Data set [3] concerns Common Straight Swift Butterfly (Parnara guttata). The experiment in a line: Control test on common straight swift butterfly of paddy rice, powder spray, number of insects after 20 days (Test Example 8). The data set is classed as in vivo. To be noted: 20 days after spraying.
Data set [4] relates to Rice Blast (Pyricularia oryzae). The format is in vivo. To be noted: panicle blast, 30 days after spraying.
The test system of data set [5] is Turnip Moth (Agrotis segetum). In words: Control test on turnip moth of cabbage, soil treatment, rate of infected stumps after 7 days. The format is in vivo. The settings on record: 7 days after treatment. How it is done:
(§3) Control Test on Turnip Moth (Agrotis segetum) and Clubroot (Plasmodiophora brassicae) of Cabbage due to Soil Treatment
(§4) A powder in a prescribed amount was mixed to soil and cabbages (cultivar: shiki-kaku) cultured on a cell medium were planted out. After 7 days from the treatment, the number of infected stumps due to Agrotis segetum was examined and the rate of infected stumps was calculated. Furthermore, after 60 days from the treatment, stumps were picked out, and lesion formation of Plasmodiophora brassicase was examined according to the degrees of severity. The control value was calculated from the average severity index of each plot according to the following equation. In the Table, gai represents the amount of active ingredients (g).

In data set [6] the test system is Clubroot (Plasmodiophora brassicae). In words: Control test on clubroot of cabbage, soil treatment, control value after 60 days. The format is in vivo. To be noted: 60 days after treatment. As to the method:
as §3, §4
Severity Index • 0: No clubroot attached • 1: Clubroot was attached at a portion of from 1 to 25% of the whole root • 2: Clubroot was attached at a portion of from 25 to 50% of the whole root • 3: Clubroot was attached at a portion of from 50 to 75% of the whole root • 4: Clubroot was attached at a portion of from 75% or more of the whole root Control Value=(1−average severity in the treated plot/average severity in the untreated plot)×100

Data set [7] has as its system Scab (Venturia nashicola). In words: Control test on scab of pear, spray, severity index after 14 days. The data set is classed as in vivo. The settings on record: 14 days after spraying. As to the method:
(§5) Control Test on Oriental Fruit Moth (Grapholita molesta) and Scab (Venturia nashicola) of Pear
(§6) A liquid chemical which was prepared to the prescribed concentration was sufficiently sprayed on 17-year-old pears (cultivar: Hosui) (early June). After 40 days from spraying, the number of infected fruits due to Grapholita molesta was examined for all fruit in the plot, and the rate of infected fruit was calculated. Furthermore, after 14 days from spraying, infection of Venturia nashicola was examined by the degrees for optional 200 leaves in the plot and the severity index was calculated according to the following equation. Severity index=Z(number of infected leaves by the degrees×index)×100/(number of examined leaves×5)

Data set [8] relates to Powdery Mildew (Sphaerotheca fuliginea). The experiment in a line: Control test on powdery mildew of cucumbers, spray, control value from severity index. The format is in vivo. As to the method: (§7) Insecticidal Test on Cucumber Moth (Diaphania indica) and Control Test on Powdery Mildew (Sphaerotheca fuliginea) of Cucumbers
(§8) A liquid chemical which was prepared to the prescribed concentration was sufficiently sprayed on cucumbers (cultivar: sagami-hanpaku) cultured in a greenhouse. After 7 days from spraying, leaves were cut off and put into a plastic cup (diameter: 10 cm, height: 10 cm) along with 5 of second-stage larvae of Diaphania indica, and the mortality was examined 4 days thereafter. Furthermore, 1 day after spraying, the leaves of cucumbers which were previously arranged to be infected by pathogen were uniformly wiped with Sphaerotheca fuliginea thereon using a paintbrush for inoculation and examined after 10 days thereafter. The area occupied by lesion per leaf of cucumber was examined in accordance with the following index, and the control value was calculated from the average severity index of each plot according to the following equation (two replications).
Severity Index • 0: No lesion • 1: Lesion area was not more than 5% • 2: Lesion area was from 6 to 25% • 3: Lesion area was from 26 to 50% • 4: Lesion area was not less than 51% Control Value=(1−average severity in the treated plot/average severity in the untreated plot)×100

In data set [9] the test system is Cucumber Moth (Diaphania indica). In words: Insecticidal test on cucumber moth, sprayed cucumber leaves, mortality. The format is in vivo. How it is done: as §7, §8
Data set [10] has as its system Oriental Fruit Moth (Grapholita molesta). In words: Control test on oriental fruit moth of pear, spray, rate of infected fruit after 40 days. To be noted: 40 days after spraying. The data set is classed as in vivo. As to the method:
as §5, §6

The test system of data set [11] is Rice Blast (Pyricularia oryzae). The format is in vivo. To be noted: in vivo.
Data set [12] deals with Tiger Moth (Trichoplusia ni). The experiment in a line: Insecticidal test on tiger moth, cabbage leaf dip, mortality after 6 days. The format is in vivo. To be noted: 0.5 ppm; 6 days after treatment. How it is done: Insecticidal Test on Tiger Moth (Trichoplusia ni)
Cut leaves of cabbages (cultivar: shiki-kaku) were immersed in a liquid chemical which was diluted and prepared to the prescribed concentration for 30 seconds, air-dried, and then put into a plastic vessel having a diameter of 9 cm. Each of 10 second-stage insects of Trichoplusia ni was inoculated and the resulting vessel was allowed to stand in an isothermal chamber maintained at 25 degree centigrade. After 6 days from the treatment, the number of surviving insects was examined and the mortality was calculated (two replications of 10 insects per plot).

Data set [13] concerns Green Peach Aphid (Myzus persicae). The data set is classed as in vivo. To be noted: 3 ppm, foliar spray on eggplant, 5 days after spraying.
For data set [14], the system named is Resistant Cotton Melon Aphid (Aphis gossypii). The format is in vivo. To be noted: 3 ppm, foliar spray on cucumber, 5 days after spraying.
The test system of data set [15] is 2-spotted Spider Mite (Tetranychus urticae). In words: Insecticidal test on 2-spotted spider mite, kidney bean leaf disc with eggs, hatchability of larvae after 6 days. The format is in vivo. The settings on record: 50 ppm; 6 days after spraying. How it is done: Insecticidal Test on 2-spotted Spider Mite (Tetranychus urticae)
A plastic cup having a diameter of 8 cm was filled with water and covered by a lid with a hole having a diameter of 1 cm. Absorbent cotton was put on the top of the lid and dropped into water from the lid such that the absorbent cotton was always in a wet state due to a capillary phenomenon. A leaf disc having a diameter of 2 cm was prepared with primary leaves of kidney beans (cultivar: Green top) and placed on the aforementioned absorbent cotton. 4 adult female insects of Tetranychus urticae were inoculated thereon. Next day, the adult female insects were removed, and then the number of insect egg was examined. A liquid chemical which was prepared to the prescribed concentration was sprayed by using a vertical sprayer. After spraying, the resulting cup was allowed to stand in an isothermal chamber maintained at 25 degree centigrade. After 6 days from spraying, the number of hatched larvae that survived on the leaf disc was examined and the hatchability of larvae was calculated (two replications of one concentration per chemical).

Data set [16] deals with Small Brown Planthopper (Laodelphax striatellus). In words: Insecticidal test on small brown planthopper, sprayed rice seedlings, mortality after 6 days. The format is in vivo. The settings on record: 3 ppm, sprayed rice seedlings, 6 days after treatment. How it is done: Insecticidal Test on Small Brown Planthopper (Laodelphax striatellus)
A liquid chemical which was diluted and prepared to the prescribed concentration was sprayed on rice seedlings (cultivar: koshihikari), air-dried, and then 10 three-stage insects of Laodelphax striatellus were put into a glass test tube having a diameter of 3 cm and a height of 10 cm along with the seedlings. The test tube was cotton plugged. After 6 days from the treatment, the number of surviving insects was examined and the mortality was calculated (two replications of 10 insects per plot).

Data set [17] has as its system Rice Striped Stem Borer (Chilo suppressalis). The settings on record: 5 gai/box.

With `Cc1cc(C(F)(C(F)(F)F)C(F)(F)F)cc(C)c1NC(=O)c1cccc(N(C)C(=O)c2cccnc2)c1F` [Compound 1244], the “Laodelphax striatellus Number of parasitic insects/30 stumps” value (“Laodelphax striatellus Number” for short) in data set [1] (5 gai/box, 40 days) was 72 insects/30 stumps; in data set [1] (5 gai/box, 60 days) it was 132 insects/30 stumps. In data set [2] (5 gai/box), the “Cnaphalocrocis medinalis Infected leaf rate (%)” value was 0.25%.
On to `CC(Oc1ccc(Cl)cc1Cl)C(=O)NC(C)(C#N)C(C)C` (centres unmarked) [fenoxanil], for which the “Number (insects/100 stumps)” value in [3] (40 gai/10a) turned out to be 155 insects/100 stumps. Further, the “Pyricularia oryzae Control value” in data set [4] (40 gai/10a) is 88.
For `O=[N+]([O-])NC1=NCCN1Cc1ccc(Cl)nc1` [imidacloprid], the “Laodelphax striatellus Number” value came to 0 insects/30 stumps in [1] (1 gai/box, 40 days) and 9 insects/30 stumps in data set [1] (1 gai/box, 60 days). In addition, the “Cnaphalocrocis medinalis Infected leaf rate (%)” value in data set [2] (1 gai/box) stood at 1.77%.
For `CCCc1cc(C(F)(C(F)(F)F)C(F)(F)F)cc(Br)c1NC(=O)c1cccc(NC(=O)c2ccccc2)c1` [Compound 178], the “Agrotis segetum Infected stump rate (%)” value in data set [5] (100 gai/10a) was 5.6%. Besides, in [6] (100 gai/10a), the “Plasmodiophora brassicae Control value” worked out at 5. For the same compound, the “Venturia nashicola Severity index” value in [7] (50 ppm) is given as 51.5. The “Sphaerotheca fuliginea Control value” in [8] (10 ppm) came to 0. The “Diaphania indica Mortality (%)” value in [9] (10 ppm) was determined as 90%. The “Grapholita molesta Infected fruit rate (%)” value in [10] (50 ppm) is recorded as 3.4%.
For `CC(C)CC(C)c1sccc1NC(=O)c1cn(C)nc1C(F)(F)F` (centres unmarked) [penthiopyrad], the “Venturia nashicola Severity index” value in data set [7] (75 ppm) worked out at 3.7. In [8] (3.15 ppm), the “Sphaerotheca fuliginea Control value” amounted to 95. For the same compound, the mortality at 3.15 ppm in [9] (Diaphania indica, 3.15 ppm) is 0%. For the same compound, in data set [10] (75 ppm), the “Grapholita molesta Infected fruit rate (%)” value is listed as 19.8%.
Turning to `Cc1cc(C(F)(C(F)(F)F)C(F)(F)F)cc(C)c1NC(=O)c1cccc(NC(=O)c2cccnc2Cl)c1F` [compound 639], in data set [11], the “Pyricularia oryzae Control value” is listed as 3. The “Laodelphax striatellus Number” value in data set [1] (5 gai/box, 40 days) is recorded as 65 insects/30 stumps; in data set [1] (5 gai/box, 60 days), 120 insects/30 stumps. For the same compound, the “Mortality (%)” value stood at 80% in data set [12] and 0% in data set [16]. Also, the “Cnaphalocrocis medinalis Infected leaf rate (%)” value in data set [2] (5 gai/box) was 0.39%. Besides, the “Control rate (%)” value turned out to be 10% in data set [13] and 12% in data set [14]. For the same compound, the “Hatchability of larvae (%)” value in data set [15] is 82%. For the same compound, the “Chilo suppressalis Mortality (%)” value in data set [17] was 90%.
For `CCOC(=O)CCN(SN(C)C(=O)Oc1cccc2c1OC(C)(C)C2)C(C)C` [benfuracarb], the “Laodelphax striatellus Number” value came to 12 insects/30 stumps in data set [1] (2.5 gai/box, 40 days) and 31 insects/30 stumps in data set [1] (2.5 gai/box, 60 days). Besides, the “Cnaphalocrocis medinalis Infected leaf rate (%)” value in [2] (2.5 gai/box) is listed as 1.28%.
Take `O=[N+]([O-])c1ccc(NS(=O)(=O)c2ccc(Cl)c(C(F)(F)F)c2)c(Cl)c1` [flusulfamide]: the “Agrotis segetum Infected stump rate (%)” value in data set [5] (60 gai/10a) was 36.1%. In [6] (60 gai/10a), the “Plasmodiophora brassicae Control value” turned out to be 91.
As to `C[C@H]1O[C@H](O[C@H]2[C@H](O)[C@@H](O)[C@@H](O)[C@H](O)[C@@H]2O)[C@@H](N)C[C@@H]1NC(=N)C(=O)O` [kasugamycin], the “Number (insects/100 stumps)” value in data set [3] (12 gai/10a) is recorded as 162 insects/100 stumps. The “Pyricularia oryzae Control value” in data set [4] (12 gai/10a) was found to be 91.
Turning to `O=C1OCc2c(Cl)c(Cl)c(Cl)c(Cl)c21` [fthalide], the “Number (insects/100 stumps)” value in data set [3] (100 gai/10a) worked out at 150 insects/100 stumps. Further, the “Pyricularia oryzae Control value” in data set [4] (100 gai/10a) is 90.
On to `Cc1cc(C(F)(C(F)(F)F)C(F)(F)F)cc(C)c1NC(=O)c1cccc(N(C)C(=O)c2ccc(Cl)nc2)c1F` [Compound 1247], for which the “Laodelphax striatellus Number” value in data set [1] (5 gai/box, 40 days) was 69 insects/30 stumps; in data set [1] (5 gai/box, 60 days) it was 121 insects/30 stumps. The “Mortality (%)” value is 65% in data set [12] and 5% in data set [16]. In addition, the “Cnaphalocrocis medinalis Infected leaf rate (%)” value in data set [2] (5 gai/box) stood at 0.25%. For the same compound, the “Control rate (%)” value was found to be 6% in data set [13] and 10% in [14]. Besides, the “Hatchability of larvae (%)” value in [15] stood at 74%.
For `Cc1cc(C(F)(C(F)(F)F)C(F)(F)F)cc(C)c1NC(=O)c1cccc(N(C)C(=O)c2cccnc2F)c1F` [Compound 1246], the “Pyricularia oryzae Control value” in data set [11] is reported as 0. Further, the “Laodelphax striatellus Number” value was 77 insects/30 stumps in data set [1] (5 gai/box, 40 days) and 137 insects/30 stumps in data set [1] (5 gai/box, 60 days). Also, the “Cnaphalocrocis medinalis Infected leaf rate (%)” value in [2] (5 gai/box) worked out at 0.28%. Further, the “Chilo suppressalis Mortality (%)” value in [17] came out at 95%.
